10 substances from patent US8071552B2, “Peptides and peptidomimetics binding to CD23” (Universite Bordeaux 2, priority 2004, dated 2011) can be followed below.

Values joined by “and” are separate entries in the source; they are usually repeats but may differ in a detail not shown here. Equal entries are not always repeated. No end group written: not given here.

Experiment [1] deals with Monocyte-derived macrophages (CD23+). The experiment in a line: Quantification of inflammatory response: nitrites (Greiss) from CD23-activated human macrophages, % inhibition relative to controls. The format is cell-based. Particulars: human macrophages activated through CD23. The text has this:
Monocytes are isolated from normal human peripheral blood. Samples are collected from normal volunteers (20-50 years) by blood bank. They are all tested for the absence of HIV or HBV contaminations prior to use. Human normal mononuclear cells are obtained by Ficoll (Histopaque, Sigma) gradient separation of peripheral blood leukocytes. Monocytes are separated from lymphocytes by adherence to plastic dishes coated with fetal calf serum (FCS) as described (Vouldoukis I., et al., Proc. Natl. Acad. Sci. USA., 92: 7804-7808 1995). Following this procedure, >90% of cells express CD14 antigen and display cytochemical characteristics of monocytes. The cells are then incubated in DMEM supplemented with L-non-essential amino acids, sodium pyruvate, glutamine, penicillin, streptomycin, and 10% FCS (all from Gibco Laboratories, Grand Island, N.Y.). Above culture medium, chemicals, and FCS are tested for the absence of direct activation effect on human monocytes (CD23 expression and TNF-α production as activation markers). Following 24-48 hr adherence to culture flasks, these cells differentiate into macrophage-like cells displaying non-specific esterase activity that is inhibited by sodium fluoride.
Normal human donor-derived adherent cells have low if any surface CD23 expression and are designated in the present work as macrophages. CD23 expression is obtained following cell incubation with recombinant human interleukin 4 ([…]). […] Tissue-derived macrophages are mostly CD23^+.
Monocyte-derived macrophages (CD23^+) are activated through the cross-linking of their CD23 surface molecules by appropriate MoAb (20 μg/ml, clone 135, IgG1κ isotype) or by human IgE/anti-IgE complexes (IgE, Stallergene, Paris, France; goat anti-human-IgE, Nordic Immunology, Tilburg, The Netherlands). This activation pathway promotes the activation of iNOS mRNA transcription and the generation, by macrophages, of various inflammatory mediators such as nitric oxide (NO), TNF-α, reactive oxygen radicals, IL-1, and IL-6 (for, a review see: Dugas B, et al., Immunol Today, 16:574-580(1995)).
Following 1-3 day incubation at 37° C., 5% CO2 in humid atmosphere, macrophages are analyzed for their inflammatory response as following:
48-96 hr incubation: Collection of supernatants for the detection of cytokines and nitrites. Nitrites are quantified by Greiss method (Davies et al., Methods in Molecular Biology, 225:305-320, 2003) while IL-1, IL-6 and TNF-α: were quantified using commercial ELISA kits. The following antibodies and reagents were utilized:
Following quantitation of nitrites, a percentage inhibition relative to controls is calculated.

Experiment [2] relates to macrophages derived from peripheral blood or the synovial fluid of patients with Rheumatoid Arthritis. Kind of experiment: TNF-α generation by macrophages from peripheral blood or synovial fluid of patients with Rheumatoid Arthritis. The format is cell-based, human. The conditions noted are these: for level of TNF-α: p30A + CD23-Ab. As for the experimental part: CD23^+ cells are incubated in the presence or the absence of an inhibitory peptide (p30A) for 4 hours. CD23-MoAb or IgE/anti-IgE immune complexes are added. Following 3-5 day incubation, cell supernatants are harvested and the level of TNF-α, quantified by specific ELISA. The effect of CD23-Peptide or a negative control on inflammatory functions of macrophages derived from peripheral blood or the synovial fluid of patients with Rheumatoid Arthritis is also investigated.

For experiment [3], the system named is macrophages derived from synovial fluid of patients with Rheumatoid Arthritis. The experiment in a line: NO generation by macrophages derived from synovial fluid of patients with Rheumatoid Arthritis. Particulars: RA synovial fluid macrophages. Format: cell-based, human. As for the experimental part: CD23^+ cells are incubated in the presence or the absence of an inhibitory peptide […]) for 4 hours. CD23-MoAb or IgE/anti-IgE immune complexes are added. Following 3-5 day incubation, cell supernatants are harvested and the level of nitrites quantified by Greiss reaction (Davies et al., Methods in Molecular Biology, 225:305-320, 2003). The effect of CD23-Peptide or a negative control on inflammatory functions of macrophages derived from synovial fluid of patients with Rheumatoid Arthritis is also investigated.

For experiment [4], the system named is rat peritoneal macrophages and rat peripheral macrophages. Kind of experiment: NO production from rat peritoneal and peripheral macrophages induced by IgE/DNP-BSA. Format: cell-based. The conditions noted are these: peptide 4 hours, 3-5 day incubation. As for the experimental part:
NO production from rat peritoneal macrophages and rat peripheral macrophages is also determined. Peritoneal macrophages are highly CD23^+ and produce much higher quantities of pro-inflammatory mediators compared to peripheral blood-derived cells. CD23^+ cells are incubated in the presence or the absence of an inhibitory peptide (p30A) for 4 hours. IgE/DNP-BSA is added to induce CD23 cross-linking. L-NIL is a specific inhibitor of NOS-II. Pep− is a negative control peptide. Following 3-5 day incubation, cell supernatants are harvested and the level of nitrites quantified by Greiss reaction (Davies et al., Methods in Molecular Biology, 225:305-320, 2003).

The test system of another experiment is arthritic rats. The experiment in a line: Treatment of arthritic rats (Mycobacterium butyricum-induced arthritis). Format: in vivo, Lewis rats. As for the experimental part: On day 0, 6-week old female Lewis rats weighing 145-155 g are injected subcutaneously with an arthritis-inducing emulsion. The rats are injected with 300 μl of the emulsion which contains: • 2 mg/rat heat-inactivated Mycobacterium butyricum diluted into; • 240 μl of Vaseline; • 30 μl of Tween-20; and • 30 μl of PBS.
The immunization step is repeated on day 7. The rats present arthritis signs by days 15 have to 21. Arthritic signs are assigned a clinical score (1-4). By day 40, the clinical scores increase from 1 to 3 or 4. Slower weight progression is also observed in immunized rats (FIG. 1a).
However, subcutaneous injection of 5 mg of p30A after the appearance of clinical signs results in complete remission of arthritic symptoms for 50% of the rats (FIG. 1b) as well as decreased clinical scores in 25% of the remaining rats.

The test system of experiment [5] is CD23+ cells. The experiment in a line: Inhibition of TNF-α generation from activated macrophages (ELISA). The format is cell-based, human. As for the experimental part: (§1) For inflammatory functions, cells are pre-incubated with CD23-counterstructures during 4 hours prior to their incubation with CD23-MoAb or IgE/anti-IgE complexes. Cell supernatants are collected 2-4 days later and tested for their contents in various mediators.
In addition to NO, the effect of peptides on the production of TNF-α, a well-documented effector factor during inflammatory diseases, is also tested.
CD23^+ cells are incubated in the presence or the absence of an inhibitory peptide (p30A) for 4 hours. CD23-MoAb or IgE/anti-IgE immune complexes are added. Following 3-5 day incubation, cell supernatants are harvested and the level of TNF-α, quantified by specific ELISA.
For orientation: An ELISA detects its analyte on a solid surface through an enzyme-linked reagent.

The test system of experiment [6] is CD23+ cells. Kind of experiment: Inhibition of NO generation from activated macrophages (nitrites by Greiss reaction). Format: cell-based, human. Particulars: peptide 4 hours, then IgE/anti-IgE; 3-5 day incubation. As to the method:
as §1
Inflammatory responses of human macrophages almost correlated with in vivo generation of nitric oxide by these cells. We use this inflammatory mediator as a marker of cell activation.
CD23^+ cells are incubated in the presence or the absence of an inhibitory peptide (p30A) for 4 hours. CD23-MoAb or IgE/anti-IgE immune complexes are added. Following 3-5 day incubation, cell supernatants are harvested and the level of nitrites quantified by Greiss reaction (Davies et al., Methods in Molecular Biology, 225:305-320, 2003).

Experiment [7] deals with Adjuvant arthritis (AA) rats. The experiment in a line: In vivo prevention and treatment of adjuvant arthritis in rats with p30A. Further details: species or system Lewis rats. As for the experimental part: Each group of animals comprises eight rats. Female Lewis rats (Janvier, Le Genest St Isle, France) are housed under standard laboratory conditions and the animals are allowed free access to food and water. The temperature is kept at 22±2° C. and a 12-hour light/dark schedule is maintained. All animal procedures are performed in strict accordance with the guidelines issued by the European Economic Community “86/609”. Adjuvant arthritis (AA) is induced in six weeks-old animals by subcutaneous injection at the base of the tail of 300 μl (1.8 mg) of inactivated Mycobacterium butyricum (Difco Laboratories, Detroit, Mich.) diluted in emulsion of 8 ml Vaseline, 1 ml polysorbate 80, and 1 ml PBS (Phosphate Buffer Saline, BioWhittaker, Walkersville, Md.). Rats are boosted one week later with the same dose of antigen and observed for up to 50 days following immunization for clinical symptoms of arthritis. Evaluation of AA severity is performed by two independent observers with no knowledge of the treatment protocol. The severity of AA in each paw is quantified daily by a clinical score measurement from 0 to 2 as following: no signs of inflammation (0); swelling alone (>2 fold paw diameter) (0.5) or swelling/immobility (1.0) of one paw; swelling (1,5) or swelling/immobility (2,0) of two paws. Weight evolution of the animals is measured daily. Rats are injected with peptides or peptidomimetics (dissolved in 0.1% DMSO) I.C. every two days (day 0, 2, 4, 6, and 8) during the initiation of inflammation (preventive) or following the appearance of the inflammatory signs. As negative control, rats are injected with saline.
Clinical scores are determined as described above, and the cumulative clinical score is plotted against days post-immunization (FIGS. 2, 3, and 4).
In each of FIGS. 2, 3, and 4, arrows below the x-axis indicate the days on which IC injections were administered.

The mark [8] stands for this setting: Peripheral Macrophages of RA patients.
Setting [9] is: subcutaneous injection of 5 mg after the appearance of clinical signs.

As to Ac N W BetaA CO2H [Compound 410], the “% Inhibition (nitrites relative to controls; inhibition of iNOS production)” value in experiment [1] was determined as 61%.
As for Ac N W CO2H [Compound 411], the “% Inhibition (nitrites relative to controls; inhibition of iNOS production)” value in experiment [1] was 84%.
On to Ac n w CO2H [Compound 492], for which the “% Inhibition (nitrites relative to controls; inhibition of iNOS production)” value in experiment [1] was 77%.
Take Ac w n CO2H [Compound 491]: the “% Inhibition (nitrites relative to controls; inhibition of iNOS production)” value in experiment [1] was 94%.
With F H E N W beta A S [Compound 328], the “% Inhibition (nitrites relative to controls; inhibition of iNOS production)” value in experiment [1] came to 26%.
Turning to FHENWPS [p30A], the “% Inhibition of TNF-α” value is 73% in experiment [2] (setting [8]); 41% in experiment [2] (SF Macrophages of RA patients); 47% and 54% with CD23+ cells [5] (p30A + CD23-Ab versus CD23-Ab). Also, the “level of TNF-α” value in experiment [2] (setting [8]) is 40 pg TNF-α/ml; in experiment [2] (SF Macrophages of RA patients), 140 pg TNF-α/ml; in the experiment on CD23+ cells [5] (peptide 4 hours, then CD23-Ab, 3-5 day incubation), 77 pg TNF-α/ml and 89 pg TNF-α/ml. Besides, the “level of nitrites [NO2-]” value in experiment [3] (peptide + CD23-Ab) was 7.9 µM and 9.5 µM; in experiment [3] (peptide alone (no CD23-Ab)), 8.5 µM and 10.3 µM; in the experiment on CD23+ cells [6] it was 2.6 µM and 1.4 µM. For the same substance, in experiment [4], the “IgE/DNP-BSA-induced NO production by macrophages” value was “inhibits IgE/DNP-BSA-induced NO production”. Moreover, the “remission of the arthritic condition” value in the experiment on arthritic rats (intraperitoneal injection or intravenous treatment) is recorded as “do not induce remission”. Further, the “remission of arthritis (FIG. 1b)” value with arthritic rats (subcutaneous injection of 5 mg) is reported as “results in remission”. For the same substance, in the experiment with arthritic rats (setting [9]), the “complete remission of arthritic symptoms” value is on record as 50 % of the rats. The decreased clinical scores in the experiment on arthritic rats (setting [9]) is listed as 25 % of the remaining rats. In addition, in the experiment on arthritic rats (unique injection (intraperitoneal or subcutaneous) at day 0), the arthritis appearance entry was “no affect on arthritis appearance”. Besides, the “cumulative clinical score, preventive treatment (FIG. 2)” value in experiment [7] (injections every two days from immunization, two dosage regimes, versus control rats) is recorded as “clearly superior clinical scores compared to control rats”. For the same substance, the “weight gain (FIG. 4)” value in experiment [7] (rats with arthritic symptoms, versus untreated arthritic rats) was “produced weight gain”. The “cumulative clinical score, therapeutic treatment (FIG. 3)” value in experiment [7] (treated from day of first symptoms, 3 dosage regimes, versus control rats) is listed as “clear therapeutic effect”.
Consider “G[allyl-] N W G[allyl-] S [Compound 490]”, for which, in experiment [1], the “% Inhibition (nitrites relative to controls; inhibition of iNOS production)” value amounted to 81%.
As to H E N W S [Compound 437], in experiment [1], the “% Inhibition (nitrites relative to controls; inhibition of iNOS production)” value was 56%.
For H E N W Sar S [Compound 398], the “% Inhibition (nitrites relative to controls; inhibition of iNOS production)” value in experiment [1] is reported as 74%.
Same read-out and setting: the figure for “NH2 G[allyl-] N W G[allyl-] [Compound 489]” is 62%.
